# Results published in patent publication US7803801B2, “Aminopyridine compounds having Syk inhibitory activity” (Japan Tobacco, Inc., priority 2005, dated 2010).
# Counter-ions that a name gives are not always drawn.
# Molecular target: GST-Syk Full Protein (human) (Homo sapiens, UniProt P43405)
# Test: Syk kinase inhibition test (HTRF method)
# Type: biochemical
# Details: HTRF, 100 μM ATP, 30 min room temperature, average; read-out: sykHTRF ave IC50
# Description: Syk Kinase Inhibition Test (HTRF Method)
# After the compounds were serially diluted with dimethylsulfoxide (DMSO), 10 μL of those 10-fold diluted with kinase buffer (20 mM HEPES pH 7.0, 10 mM MgCl2, 50 mM NaCl, 1 mM 2-ME, 0.05% BSA) was added to opti-plate HTRF-96 (Packard) (final DMSO concentration: 2%). 20 μL of a substrate solution (kinase buffer as mentioned above containing Syk Specific-Peptide Substrate Biot-EDPDYEWPSA-NH2 (Peptide Laboratory) 625 nM, 250 μM ATP (SIGMA) was added (final substrate concentration 250 nM, 100 μM ATP), and further 20 μL of an enzyme solution (kinase buffer as mentioned above containing GST-Syk Full Protein (human) 16 nM) (final concentration 6.4 nM) was added and the mixture was immediately stirred with a plate shaker to start enzyme reaction. After reacted at room temperature (20 to 25° C.) for 30 minutes, the enzyme reaction was terminated by adding 100 μL/well of a buffer for terminating and detecting the reaction (30 mM HEPES pH 7.0, 150 mM KF, 0.15% BSA, 0.075% Tween-20, 75 mM EDTA) containing HTRF reagent (5 μg/ml XL665-Streptavidin (CIS bio), 170 ng/ml Eu(K)-anti-PhosphoTyrosin, PT-66 (CIS bio)) (final concentration 20 mM HEPES pH 7.0, 100 mM KF, 0.1% BSA, 0.05% Tween-20, 50 mM EDTA). After allowed to stand still at room temperature for 1 hour, inhibitory effect of a compound against Syk kinase enzymatic activity was evaluated by measuring 665/620 fluorescence ratio to excitation light at 337 nm by ARVO (Wallac).
row,SMILES,IC50 [nM]
1,Cc1ccnc(Nc2cccc(-c3cnc([C@@H](N)CCCCN)s3)n2)c1 [Compound A-63],100 to 1000

# Same assay, conditions: Tables 1-x, compounds A; read-out: sykHTRF ave IC50
row,SMILES,IC50 [nM]
1,"Cc1ccnc(Nc2cccc(-c3cnc(N4CCC(N(C)S(C)(=O)=O)CC4)s3)n2)c1 [Compound A-485, N-methyl-N-(1-{5-[6-(4-methylpyridin-2-ylamino)pyridin-2-yl]thiazol-2-yl}piperidin-4-yl)methanesulfonamide]",< 100
2,Cc1ccnc(Nc2cccc(-c3cnc(N4CCN(CC(=O)N(C)C)C(=O)C4)s3)n2)c1 [Compound A-467],100 to 1000
3,"Cc1ccnc(Nc2cccc(-c3cnc(N4CCC(=C(F)C(=O)O)CC4)s3)n2)c1 [Compound A-631, fluoro-(1-{5-[6-(4-methylpyridin-2-ylamino)pyridin-2-yl]thiazol-2-yl}piperidin-4-ylidene)acetic acid]",< 100
4,Cc1ccnc(Nc2cccc(-c3cnc(N4C[C@H](O)C[C@H]4C(=O)O)s3)n2)c1 [Compound A-569],100 to 1000
5,"CC(C)(C(=O)O)C1CCN(c2ncc(-c3cccc(Nc4cc(CCO)ccn4)n3)s2)CC1 [Compound A-713, 2-[1-(5-{6-[4-(2-hydroxyethyl)pyridin-2-ylamino]pyridin-2-yl}thiazol-2-yl)piperidin-4-yl]-2-methylpropionic acid]",< 100
6,CNC(=O)C(C)(C)NC(=O)C1CCN(c2ncc(-c3cccc(Nc4cc(C)ccn4)n3)s2)CC1 [Compound A-491],100 to 1000
7,"CNC(=O)C1CCC(N(C)c2ncc(-c3cccc(Nc4cc(C)ccn4)n3)s2)CC1 (centres unmarked) [Compound A-492, N-methyl-4-(N′-methyl-N′-{5-[6-(4-methylpyridin-2-ylamino)pyridin-2-yl]thiazol-2-yl}amino)cyclohexanecarboxamide]",< 100
8,"CN(Cc1ccc(CC(=O)O)cc1)c1ncc(-c2cccc(Nc3cc(C(F)(F)F)ccn3)n2)s1 [Compound A-651, {4-[(N-methyl-N-{5-[6-(4-trifluoromethylpyridin-2-ylamino)pyridin-2-yl]thiazol-2-yl}amino)methyl]phenyl}acetic acid]",< 100
9,Cc1ccnc(Nc2cccc(-c3cnc(N4CCC(C(=O)N(CCO)CCO)CC4)s3)n2)c1 [Compound A-449],100 to 1000
10,"Cc1ccnc(Nc2cccc(-c3cnc(N(C)c4ccc(CCC(=O)O)cc4)s3)n2)c1 [Compound A-639, 3-[4-(N-methyl-N-{5-[6-(4-methylpyridin-2-ylamino)pyridin-2-yl]thiazol-2-yl}amino)phenyl]propionic acid]",< 100
11,COC(=O)N(CC(=O)O)Cc1ncc(-c2cccc(Nc3cc(C)ccn3)n2)s1 [Compound A-583],100 to 1000
12,Cc1ccnc(Nc2cccc(-c3cnc(N(C)CC(=O)O)s3)n2)c1 [Compound A-555],100 to 1000
13,Cc1ccnc(Nc2cccc(-c3cnc(N(C)C4CCC(C(=O)N[C@H]5CC[C@H](O)CC5)CC4)s3)n2)c1 (some centres unmarked) [Compound A-496],100 to 1000
14,"O=C(O)C(F)C1CCN(c2ncc(-c3cccc(Nc4ccccn4)n3)s2)CC1 (centres unmarked) [Compound A-716, fluoro-(1-{5-[6-(pyridin-2-ylamino)pyridin-2-yl]thiazol-2-yl}piperidin-4-yl)acetic acid dihydrochloride]",< 100
15,Cc1ccnc(Nc2cccc(-c3cnc(N4CCN(CC(=O)OC(C)(C)C)C(=O)C4)s3)n2)c1 [Compound A-463],100 to 1000
16,Cc1ccnc(Nc2cccc(-c3cnc(N(Cc4ccccc4)[C@H]4CC[C@@H](CC(=O)O)CC4)s3)n2)c1 [Compound A-625],100 to 1000
17,"O=C(O)CC1CCN(c2ncc(-c3cccc(Nc4cc(CCO)ccn4)n3)s2)CC1 [Compound A-681, [1-(5-{6-[4-(2-hydroxyethyl)pyridin-2-ylamino]pyridin-2-yl}thiazol-2-yl)piperidin-4-yl]acetic acid dihydrochloride]",< 100
18,CN(c1ncc(-c2cccc(Nc3ccccn3)n2)s1)C(C)(C)c1ccc(C(=O)O)cc1 [Compound A-691],100 to 1000

row,SMILES,IC50 [nM]
1,"Cc1ccnc(Nc2cccc(-c3cnc(N4CCN(CC(=O)NCCO)C(=O)C4)s3)n2)c1 [Compound A-468, N-(2-hydroxyethyl)-2-(4-{5-[6-(4-methylpyridin-2-ylamino)pyridin-2-yl]thiazol-2-yl}-2-oxopiperazin-1-yl)acetamide]",< 100
2,"Cc1ccnc(Nc2cccc(-c3cnc(N4CCCC(CCC(=O)O)C4)s3)n2)c1 (centres unmarked) [Compound A-704, 3-(1-{5-[6-(4-methylpyridin-2-ylamino)pyridin-2-yl]thiazol-2-yl}piperidin-3-yl)propionic acid]",< 100
3,"CC(C)(O)c1ccnc(Nc2cccc(-c3cnc(N4CCC(CC(=O)O)CC4)s3)n2)c1 [Compound A-717, [1-(5-{6-[4-(1-hydroxy-1-methylethyl)pyridin-2-ylamino]pyridin-2-yl}thiazol-2-yl)piperidin-4-yl]acetic acid dihydrochloride]",< 100
4,Cc1ccnc(Nc2cccc(-c3cnc(N(CCO)C4CCCCC4)s3)n2)c1 [Compound A-673],100 to 1000
5,Cc1ccnc(Nc2cccc(-c3cnc(CN(C)CC(=O)NCC(C)(C)C)s3)n2)c1 [Compound A-689],100 to 1000
6,"Cc1ccnc(Nc2cccc(-c3cnc(N(C)CCC/C=C(\F)C(=O)O)s3)n2)c1 [Compound A-647, (Z)-2-fluoro-6-(N-methyl-N-{5-[6-(4-methylpyridin-2-ylamino)pyridin-2-yl]thiazol-2-yl}amino)hex-2-enoic acid dihydrochloride]",< 100
7,"CN(C[C@H]1CC[C@H](C(=O)O)CC1)c1ncc(-c2cccc(Nc3ccccn3)n2)s1 [Compound A-699, trans-4-[(N-methyl-N-{5-[6-(pyridin-2-ylamino)pyridin-2-yl]thiazol-2-yl}amino)methyl]cyclohexanecarboxylic acid dihydrochloride]",< 100
8,Cc1ccnc(Nc2cccc(-c3cnc(CN(C)CC(=O)N(C)C)s3)n2)c1 [Compound A-688],100 to 1000
9,"Cc1ccnc(Nc2cccc(-c3cnc(NC(C)C)s3)n2)c1 [Compound A-693, N-isopropyl-N-{5-[6-(4-methylpyridin-2-ylamino)pyridin-2-yl]thiazol-2-yl}amine]",< 100
10,Cc1ccnc(Nc2cccc(-c3cnc(N(C)C(C(=O)N4CCC(O)CC4)C(C)C)s3)n2)c1 (centres unmarked) [Compound A-675],100 to 1000
11,Cc1ccnc(Nc2cccc(-c3cnc(N(C)C4CCN(C(=O)N5CCC(O)CC5)CC4)s3)n2)c1 [Compound A-703],100 to 1000
12,Cc1ccnc(Nc2cccc(-c3cnc(NCCc4ccccc4)s3)n2)c1 [Compound A-701],100 to 1000
13,"CC(=CC(=O)O)CCCN(C)c1ncc(-c2cccc(Nc3cc(C(F)(F)F)ccn3)n2)s1 [Compound A-655, 3-methyl-6-(N-methyl-N-{5-[6-(4-trifluoromethylpyridin-2-ylamino)pyridin-2-yl]thiazol-2-yl}amino)hex-2-enoic acid dihydrochloride]",< 100
14,CN(CCO)c1ncc(-c2cccc(Nc3ccccn3)n2)s1 [Compound A-706],100 to 1000
15,"O=C(O)CC1CCN(c2ncc(-c3cccc(Nc4cnccn4)n3)s2)CC1 [Compound A-680, (1-{5-[6-(pyrazin-2-ylamino)pyridin-2-yl]thiazol-2-yl}piperidin-4-yl)acetic acid]",< 100
16,Cc1ccnc(Nc2cccc(-c3cnc(N(C)C4CCN(C(=O)C(C)(C)C)CC4)s3)n2)c1 [Compound A-671],100 to 1000
17,"Cc1ccnc(Nc2cccc(-c3cnc(N4CCC(C(C)(C)C(=O)O)CC4)s3)n2)c1 [Compound A-718, 2-methyl-2-(1-{5-[6-(4-methylpyridin-2-ylamino)pyridin-2-yl]thiazol-2-yl}piperidin-4-yl)propionic acid dihydrochloride]",< 100
18,"Cc1ccnc(Nc2cccc(-c3cnc(N4CCCc5c(C(=O)O)cccc54)s3)n2)c1 [Compound A-627, 1-{5-[6-(4-methylpyridin-2-ylamino)pyridin-2-yl]thiazol-2-yl}-1,2,3,4-tetrahydroquinoline-5-carboxylic acid]",< 100

# Same assay, conditions: Tables 2-x, thiophene compounds B; read-out: sykHTRK ave IC50
row,SMILES,IC50 [nM]
1,Cc1ccnc(Nc2cccc(-c3ccc(CNC(=O)[C@H]4CC[C@H](C(=O)O)CC4)s3)n2)c1 [Compound B-121],100 to 1000
2,"Cc1ccnc(Nc2cccc(-c3ccc(C(O)C(F)(F)C(=O)O)s3)n2)c1 (centres unmarked) [Compound B-109, 2,2-difluoro-3-hydroxy-3-{5-[6-(4-methylpyridin-2-ylamino)pyridin-2-yl]thiophen-2-yl}propionic acid]",< 100
3,"Cc1ccnc(Nc2cccc(-c3ccc(CN(Cc4ccc(C(=O)O)cc4)C(=O)C(C)C)s3)n2)c1 [Compound B-127, 4-[(N-isobutyryl-N-{5-[6-(4-methylpyridin-2-ylamino)pyridin-2-yl]thiophen-2-ylmethyl}amino)methyl]benzoic acid]",< 100
4,"Cc1ccnc(Nc2cccc(-c3ccc(CN(Cc4ccc(C(=O)O)cc4)C(=O)CO)s3)n2)c1 [Compound B-128, 4-[(N-(2-hydroxyacetyl)-N-{5-[6-(4-methylpyridin-2-ylamino)pyridin-2-yl]thiophen-2-ylmethyl}amino)methyl]benzoic acid]",< 100
